This is an account of results in patent US20240382590A1, “NOVEL TUMOR-SPECIFIC ANTIGENS FOR CANCER STEM CELLS AND USES THEREOF” (UNIVERSITÉ DE MONTRÉAL, priority 2021, published 2024).

“Also recorded” adds a separate entry of the source.

Experiment [1] has as its system CD8+ T cells. Briefly: FEST assay (functional expansion of specific T cells, TCR Vβ CDR3 sequencing). It counts as cell-based, human. As to conditions: for Number of TCRβ clonotypes specifically expanded: FEST assay, donor D12, stimulation with a single peptide or a pool; for TCRß clonotype (TCRß CDR3 sequence) amplified: Table 3B, in vitro stimulation with peptide alone or pool, donor D12. As to the method: In vitro peptide-specific T cell expansion. Peptide-specific CD8^+ T cells from 4 healthy donors were expanded in vitro (D11, D12, D13, and D14). The expanded cells from D12 were used for FEST and tetramer staining assays, whereas the expanded cells from D11, D13, and D14 were used only for tetramer staining assays.
T cells were cultured as previously described, with minor modifications (Danilova et al., 2018). Briefly, on day 0, thawed PBMCs from each healthy donor (BioIVT) were T cell-enriched using the Human Pan T cell isolation kit (Miltenyi Biotec). T cells were resuspended at 2×10^6/mL in AIM V media supplemented with 50 μg/mL gentamicin (ThermoFisher Scientific) and 1% HEPES. The T cell-negative fraction was irradiated at 30 Gy, washed, and resuspended at 2×10^6/mL in AIM V media supplemented with 50 μg/mL gentamicin and 1% HEPES. 2.5 ml per well of both T cells and irradiated T cell-depleted cells were added to a 6-well plate, along with either a peptide alone, a peptide pool (up to 6 MAPs per pool, 1 μg/mL final concentration for each MAP) or without peptide. Cells were cultured for 10 days at 37° C., 5% CO2. On day 3 and 7, half the culture media was replaced with fresh culture media containing 100 IU/mL IL-2, 50 ng/mL IL-7, and 50 ng/mL IL-15 (day 3) and 200 IU/mL IL-2, 50 ng/mL IL-7, and 50 ng/mL IL-15 (day 7). On day 10, thawed PBMCs from the same donor were used to generate a new batch of T cell-depleted cells. These cells were irradiated at 30 Gy and added to cultures at a 1:1 T cell:non-T cell ratio, along with 1 μg/mL of relevant peptide(s) or without peptide. On day 13 and 17, at least half the culture media was replaced with fresh culture media (final concentrations: 100 IU/mL IL-2, 25 ng/mL IL-7, and 25 ng/mL IL-15). On day 20, cells were harvested to perform tetramer staining and/or FEST assays.
FEST assays. For FEST assays, CD8^+ cells were further isolated using the Human CD8^+ T Cell Isolation Kit (Miltenyi Biotec). As a negative control, CD8^+ T cells were also isolated from freshly thawed uncultured PBMCs of the same healthy donor. DNA was extracted from CD8^+ T cells using a QIAGEN DNA blood mini kit (QIAGEN). TCR Vβ CDR3 sequencing was performed using the survey resolution of the immunoSEQ platform (Adaptive Biotechnologies). Raw data exported from the immunoSEQ portal were processed with the FEST web tool (www.stat-apps.onc.jhmi.edu/FEST).
Given that paMAPs are appealing targets for immunotherapy, their immunogenicity was tested using in vitro T cell assays with peripheral blood mononuclear cells (PBMCs) from healthy donors. paMAPs were prioritized based on four criteria: i) the immunogenicity score predicted by Repitope, a machine learning algorithm that uses public T-cell receptor (TCR) databases to predict a probability of T cell response (Ogishi and Yotsuyanagi, 2019), ii) the HLA allotype presenting the paMAP (HLAA*02:01 or HLA-B*53:01 shared by the iPSCs and PBMCs donors), iii) expression in minimum 10% of the samples in at least one TOGA cancer type (FIG. 3), and iv) novel MAP status. The […] T cell response against 11 paMAPs was tested using peptide-HLA tetramer staining and/or more sensitive functional expansion of specific T cells (FEST) assays (Danilova et al., 2018). In FEST assays, TCR sequencing is performed on T cells stimulated or not with synthetic paMAPs. T cells were stimulated in vitro with autologous T cell-depleted PBMCs pulsed with individual or pooled (n=5 or 6) paMAPs (Tables 3A-B).

The subject of experiment [2] is iPSCs. Nature of the experiment: Flow cytometry of surface HLA-A,B,C (QIFIKIT) and pluripotency markers on IFN-γ-treated iPSCs. It is filed as cell-based, human. The following applies: 40 ng/mL IFN-γ, 72 h. The protocol: (§1) hiPSC22 cells derived from adult human skin fibroblasts using defective polycistronic retroviruses expressing OCT4, SOX2, KLF4, and c-MYC were obtained from Takara Bio (Cellartis human iPS cell line 22). hiPSC22 cells were cultured in the Cellartis® DEF-CS™ 500 Basal Medium with Additives (Takara Bio) on coated (Cellartis DEF-CS 500 COAT-1, Takara Bio) cell culture vessels according to the manufacturer's instructions. Fibro-iPSC.1 and Fibro-iPSC.2 cells are biological replicates of the same iPS cell line reprogrammed from adult human dermal fibroblasts using lentiviruses expressing OCT4, SOX2, NANOG, and LIN28, as per (Hong et al., 2011), and were provided by Dr. Mick Bathia (McMaster University, Ontario, Canada). […]
Single-cell suspensions were stained with PerCP-Cy5.5 Mouse anti-Oct3/4, PE Mouse anti-SSEA-1, Alexa Fluor 647 Mouse anti-SSEA-4 antibodies or the respective isotypes (Human and Mouse Pluripotent Stem Cell Analysis Kit, BD Biosciences), APC/Cyanine7 anti-human/mouse SSEA-3 (BioLegend) or the APC-Cy™7 Rat IgM, K Isotype Control (BD Biosciences) according to the manufacturers' instructions. Surface HLA-A,B,C molecules were quantified using a QIFIKIT (FITC conjugate, Agilent Dako) as per the manufacturer's instructions. Flow cytometry experiments were performed on a ZE5 (Bio-Rad), and data were analyzed using the FlowJo software. […]

Experiment [3] concerns iPSCs. Nature of the experiment: MS-based identification of MHC I-associated peptides from iPSCs. The following applies: 40 ng/mL IFN-γ, 72 h. Set-up: species or system human. As to the method:
as §1, with “Canada). Fibro-iPSC.1 and Fibro-iPSC.2 were cultured on Matrigel® (Corning, diluted in DMEM/F-12 from Gibco)-coated cell culture vessels in mTeSR1 medium ([…]), according to the manufacturer's instructions. All iPSCs were passaged using the Gentle Cell Dissociation Reagent ([…]) or were dissociated to single cells using TrypLE Express (Gibco) and washed with DPBS (Gibco) for downstream analyses. After removing 3-5×10^6 iPSCs for RNA-seq and 5×10^6 cells for flow cytometry, iPSCs were pelleted and stored at −80 degrees C. until MS analysis.” for “Canada).”

Experiment [4] deals with CD8+ T cells. Briefly: Peptide-HLA tetramer staining after in vitro peptide-specific T cell expansion. It counts as cell-based, human. The following applies: healthy donor PBMCs after 20 days in vitro stimulation. As to the method: T cells were resuspended at 2×10^6/mL in AIM V media supplemented with 50 μg/mL gentamicin (ThermoFisher Scientific) and 1% HEPES. […] Cells were cultured for 10 days at 37° C., 5% CO2. On day 3 and 7, half the culture media was replaced with fresh culture media containing 100 IU/mL IL-2, 50 ng/mL IL-7, and 50 ng/mL IL-15 (day 3) and 200 IU/mL IL-2, 50 ng/mL IL-7, and 50 ng/mL IL-15 (day 7). On day 10, thawed PBMCs from the same donor were used to generate a new batch of T cell-depleted cells.

Experiment [5] relates to cytolytic T lymphocytes. As to conditions: MAGEA4-derived paMAPs; cited from earlier work.

In the case of “ALYPQPPTV (listed as Homo sapiens) [paMAP]”, the “Number of TCRβ clonotypes specifically expanded” value (from here on “Number”) in experiment [1] is given as “two to four”. In addition, in experiment [1] (listed as pa_11), the “TCRß clonotype (TCRß CDR3 sequence) amplified” value (shortened to “TCRß clonotype”) was “CASSYRTGSAEAFF (SEQ ID NO: 77); also recorded: CASSLGGAYEQYF (SEQ ID NO: 78); also recorded: CASSYPQGGEQFF (SEQ ID NO: 79); also recorded: CATSRGTGVNTEAFF (SEQ ID NO: 80)”.
Turning to “IFN-γ: recombinant human IFN-γ (Gibco) used to raise MHC I on iPSCs”, in experiment [2] (average of three fibroblast-derived iPSC samples), the “Increase in surface HLA-A/B/C levels” value amounted to 34 fold. Further, the “Expression of canonical pluripotency markers” value in experiment [2] (iPSCs) was “without affecting the expression of canonical pluripotency markers”. Besides, the “More unique MAPs detected than for untreated iPSCs” value in experiment [3] is reported as 1.8-4.5 fold.
“KLAQIIRQV (listed as Homo sapiens) [paMAP]”: in experiment [4], the “T-cell response (immunogenicity) by peptide-HLA tetramer staining” value (from here on “T-cell response (immunogenicity)”) is recorded as “one out of four donors”.
Regarding “KVLEHVVRV (listed as Homo sapiens) [previously reported paMAP derived from MAGEA4]”, in experiment [5], the “Immunogenic in previous studies” value is “immunogenic in previous studies”.
For “VTLSTYFHV (listed as Homo sapiens) [paMAP]”, the “Number” value in experiment [1] is recorded as “two to four”. Besides, the “TCRß clonotype” value in experiment [1] (listed as pa_10) is recorded as “CASSKWGSYGYTF (SEQ ID NO: 75); also recorded: CASSLPDTTYEQYF (SEQ ID NO: 76)”.
“LPMWKALLF (listed as Homo sapiens) [paMAP]”: the “Number” value in experiment [1] is “two to four”. Besides, the “TCRß clonotype” value in experiment [1] (listed as pa_06) is given as “CASSGPGDQPQHF (SEQ ID NO: 83); also recorded: CASSEWGSRAGGGDTQYF (SEQ ID NO: 84)”.
With “SLLGSSEILEV (listed as Homo sapiens) [paMAP]”, in experiment [4], the “T-cell response (immunogenicity)” value is on record as “one out of four donors”. The “Number” value in experiment [1] was “two to four”. Also, the “TCRß clonotype” value in experiment [1] (listed as pa_12) is “CASSSRTDTYSPLHF (SEQ ID NO: 81); also recorded: CASSLGRWNSPLHF (SEQ ID NO: 82)”.
“GVYDGREHTV (listed as Homo sapiens) [previously reported paMAP derived from MAGEA4]”: in experiment [5], the “Immunogenic in previous studies” value is reported as “immunogenic in previous studies”.
On to “FLLPGVLLSEA (listed as Homo sapiens) [previously reported saMAP from UGT3A2]”, for which the “T-cell response (immunogenicity)” value in experiment [4] was “immunogenic in one donor”.
